Source: the CheMixHub ionic liquid set
± gives the uncertainty stated by the source.

Assay: xn = mol fraction of the nth substance listed
Conditions: 100 kPa; for electrical conductivity: frequency 1 MHz

O=C(O)c1cccnc1 + CCCC[n+]1ccn(C)c1.[Br-] + O
viscosity [mPa·s]
Conditions	293.15 K	298.15 K	303.15 K	308.15 K	313.15 K	318.15 K
x1 = 0.0002684, x2 = 0	1.015 ± 0.031	0.903 ± 0.031	0.807 ± 0.031	0.734 ± 0.031	0.666 ± 0.031	0.61 ± 0.031
x1 = 0.0002711, x2 = 0.0008999	1.035 ± 0.032	0.92 ± 0.031	0.824 ± 0.031	0.754 ± 0.031	0.677 ± 0.031	0.62 ± 0.031
x1 = 0.0002757, x2 = 0.001798	1.06 ± 0.032	0.94 ± 0.031	0.842 ± 0.031	0.759 ± 0.031	0.69 ± 0.031	0.632 ± 0.031
x1 = 0.0002802, x2 = 0.002695	1.071 ± 0.032	1.002 ± 0.031	0.906 ± 0.031	0.796 ± 0.031	0.75 ± 0.031	0.681 ± 0.031
x1 = 0.0005421, x2 = 0	1.018 ± 0.031	0.905 ± 0.031	0.809 ± 0.031	0.737 ± 0.031	0.669 ± 0.031	0.614 ± 0.031
x1 = 0.0005475, x2 = 0.0008997	1.039 ± 0.032	0.923 ± 0.031	0.827 ± 0.031	0.756 ± 0.031	0.678 ± 0.031	0.621 ± 0.031
x1 = 0.0005493, x2 = 0.001798	1.063 ± 0.032	0.942 ± 0.031	0.843 ± 0.031	0.761 ± 0.031	0.691 ± 0.031	0.633 ± 0.031
x1 = 0.0005547, x2 = 0.002694	1.074 ± 0.032	1.004 ± 0.031	0.908 ± 0.031	0.797 ± 0.031	0.751 ± 0.031	0.682 ± 0.031
x1 = 0.0008084, x2 = 0	1.021 ± 0.031	0.908 ± 0.031	0.812 ± 0.031	0.742 ± 0.031	0.673 ± 0.031	0.617 ± 0.031
x1 = 0.0008166, x2 = 0.0008994	1.042 ± 0.032	0.925 ± 0.031	0.829 ± 0.031	0.758 ± 0.031	0.68 ± 0.031	0.622 ± 0.031
x1 = 0.0008283, x2 = 0.001797	1.066 ± 0.032	0.945 ± 0.031	0.845 ± 0.031	0.763 ± 0.031	0.693 ± 0.031	0.634 ± 0.031
x1 = 0.0008364, x2 = 0.002693	1.077 ± 0.032	1.007 ± 0.031	0.91 ± 0.031	0.799 ± 0.031	0.753 ± 0.031	0.683 ± 0.031
x1 = 0.001084, x2 = 0	1.024 ± 0.031	0.911 ± 0.031	0.814 ± 0.031	0.746 ± 0.031	0.677 ± 0.031	0.62 ± 0.031
x1 = 0.001093, x2 = 0.0008992	1.044 ± 0.032	0.927 ± 0.031	0.83 ± 0.031	0.759 ± 0.031	0.681 ± 0.031	0.624 ± 0.031
x1 = 0.001104, x2 = 0.001797	1.069 ± 0.032	0.947 ± 0.031	0.848 ± 0.031	0.765 ± 0.031	0.694 ± 0.031	0.635 ± 0.031
x1 = 0.001114, x2 = 0.002693	1.08 ± 0.032	1.009 ± 0.031	0.912 ± 0.031	0.801 ± 0.031	0.754 ± 0.031	0.684 ± 0.031
x1 = 0.001351, x2 = 0	1.027 ± 0.032	0.913 ± 0.031	0.816 ± 0.031	0.75 ± 0.031	0.681 ± 0.031	0.624 ± 0.031
x1 = 0.001363, x2 = 0.000899	1.047 ± 0.032	0.93 ± 0.031	0.833 ± 0.031	0.762 ± 0.031	0.683 ± 0.031	0.625 ± 0.031
x1 = 0.001377, x2 = 0.001796	1.071 ± 0.032	0.95 ± 0.031	0.85 ± 0.031	0.767 ± 0.031	0.696 ± 0.031	0.636 ± 0.031
x1 = 0.00139, x2 = 0.002692	1.083 ± 0.032	1.012 ± 0.031	0.915 ± 0.031	0.803 ± 0.031	0.756 ± 0.031	0.686 ± 0.031
x1 = 0.001619, x2 = 0	1.03 ± 0.032	0.916 ± 0.031	0.819 ± 0.031	0.754 ± 0.031	0.685 ± 0.031	0.628 ± 0.031
x1 = 0.001635, x2 = 0.0008987	1.05 ± 0.032	0.932 ± 0.031	0.835 ± 0.031	0.763 ± 0.031	0.684 ± 0.031	0.619 ± 0.031
x1 = 0.001652, x2 = 0.001796	1.074 ± 0.032	0.952 ± 0.031	0.852 ± 0.031	0.768 ± 0.031	0.697 ± 0.031	0.638 ± 0.031
x1 = 0.001666, x2 = 0.002691	1.086 ± 0.032	1.014 ± 0.031	0.917 ± 0.031	0.805 ± 0.031	0.757 ± 0.031	0.687 ± 0.031

O=S(=O)([N-]S(=O)(=O)C(F)(F)F)C(F)(F)F.[Li+] + COC(=O)OC + CCC(=O)OC
Conditions	viscosity [mPa·s]
298.15 K, x1 = 0.333, x2 = 0.667	53.7 ± 1.6

O=S(=O)([N-]S(=O)(=O)C(F)(F)F)C(F)(F)F.[K+] + O=S(=O)([N-]S(=O)(=O)C(F)(F)F)C(F)(F)F.[Li+]
x2 = 0.43
Conditions	electrical conductivity [S/m]	viscosity [mPa·s]
442.3 K	0.359 ± 0.038	–
442.5 K	–	179 ± 19
452.3 K	0.479 ± 0.05	–
452.5 K	–	127 ± 14
462.7 K	0.624 ± 0.064	–
463 K	–	90 ± 9.6
473.6 K	0.794 ± 0.081	–
473.9 K	–	63.7 ± 6.7
483 K	0.99 ± 0.1	–
483.1 K	–	50.6 ± 5.2
492.3 K	1.19 ± 0.12	–
492.6 K	–	39.1 ± 4
502.3 K	1.42 ± 0.14	–
502.5 K	–	31.6 ± 3.2
512.6 K	1.66 ± 0.17	–
512.8 K	–	26.4 ± 2.7
523.4 K	1.93 ± 0.2	–
523.6 K	–	21.8 ± 2.2
531.6 K	2.25 ± 0.23	–
531.9 K	–	18.4 ± 1.9
543 K	2.48 ± 0.25	–
543.5 K	–	14.6 ± 1.5
552.2 K	2.77 ± 0.28	–
552.5 K	–	13.6 ± 1.4
561.6 K	3.1 ± 0.31	–
561.8 K	–	12.5 ± 1.3
571.3 K	3.53 ± 0.36	–
